# ChEMBL document CHEMBL3627608, “Crystal structures of human RIP2 kinase catalytic domain complexed with ATP-competitive inhibitors: Foundations for understanding inhibitor selectivity” (Bioorg Med Chem, 2015)
# What was measured:
# [1] = biological target: CDK1/Cyclin A (Homo sapiens) (UniProt P06493+P20248); assay: Inhibition of CDK1/cyclin A (unknown origin) at 10 uM after 120 mins P33 radiolabeled kinase activity assay; format: protein-complex assay
# [2] = biological target: T1, Myosin light chain kinase (Homo sapiens) (UniProt Q32MK0); assay: Inhibition of MYLK3 (unknown origin) at 10 uM after 120 mins P33 radiolabeled kinase activity assay
# T1 sequence (whole entry): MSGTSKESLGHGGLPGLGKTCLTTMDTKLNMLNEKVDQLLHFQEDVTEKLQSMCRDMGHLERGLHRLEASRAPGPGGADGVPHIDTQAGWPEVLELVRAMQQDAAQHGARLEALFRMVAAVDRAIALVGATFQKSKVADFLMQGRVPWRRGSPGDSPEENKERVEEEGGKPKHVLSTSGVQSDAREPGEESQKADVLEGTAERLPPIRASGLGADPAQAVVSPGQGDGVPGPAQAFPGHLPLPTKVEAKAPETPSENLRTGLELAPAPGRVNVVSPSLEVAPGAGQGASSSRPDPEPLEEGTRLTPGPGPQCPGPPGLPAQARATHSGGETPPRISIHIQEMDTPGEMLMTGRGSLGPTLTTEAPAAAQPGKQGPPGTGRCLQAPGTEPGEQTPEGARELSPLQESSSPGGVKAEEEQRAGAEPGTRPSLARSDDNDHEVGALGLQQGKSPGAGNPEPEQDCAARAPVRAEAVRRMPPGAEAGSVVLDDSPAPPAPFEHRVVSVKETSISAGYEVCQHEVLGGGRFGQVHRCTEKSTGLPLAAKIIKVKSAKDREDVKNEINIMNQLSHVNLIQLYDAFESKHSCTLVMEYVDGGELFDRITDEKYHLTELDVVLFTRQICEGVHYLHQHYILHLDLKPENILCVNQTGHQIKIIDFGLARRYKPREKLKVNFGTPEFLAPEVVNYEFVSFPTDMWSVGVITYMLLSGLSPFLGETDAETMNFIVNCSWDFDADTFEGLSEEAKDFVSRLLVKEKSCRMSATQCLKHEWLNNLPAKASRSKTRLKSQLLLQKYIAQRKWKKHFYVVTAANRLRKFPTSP
# [3] = biological target: T2, Testis-specific serine/threonine-protein kinase 2 (Homo sapiens) (UniProt Q96PF2); assay: Inhibition of TSSK2 (unknown origin) at 10 uM after 120 mins P33 radiolabeled kinase activity assay
# T2 sequence (whole entry): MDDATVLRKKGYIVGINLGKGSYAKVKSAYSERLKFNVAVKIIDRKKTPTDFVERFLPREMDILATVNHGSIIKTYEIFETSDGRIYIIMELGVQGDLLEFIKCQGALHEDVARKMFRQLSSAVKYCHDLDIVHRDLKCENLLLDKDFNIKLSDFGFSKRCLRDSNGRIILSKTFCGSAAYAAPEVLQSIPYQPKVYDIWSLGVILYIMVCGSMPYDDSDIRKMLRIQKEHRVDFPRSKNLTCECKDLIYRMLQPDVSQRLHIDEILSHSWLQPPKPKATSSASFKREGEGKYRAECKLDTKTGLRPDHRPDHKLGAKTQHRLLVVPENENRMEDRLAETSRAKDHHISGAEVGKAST
# [4] = biological target: Maternal embryonic leucine zipper kinase (Homo sapiens) (UniProt Q14680); assay: Inhibition of MELK (unknown origin) at 10 uM after 120 mins P33 radiolabeled kinase activity assay
# [5] = biological target: T3, Serine/threonine-protein kinase D2 (Homo sapiens) (UniProt Q9BZL6); assay: Inhibition of PKD2 (unknown origin) at 10 uM after 120 mins P33 radiolabeled kinase activity assay
# T3 sequence (whole entry): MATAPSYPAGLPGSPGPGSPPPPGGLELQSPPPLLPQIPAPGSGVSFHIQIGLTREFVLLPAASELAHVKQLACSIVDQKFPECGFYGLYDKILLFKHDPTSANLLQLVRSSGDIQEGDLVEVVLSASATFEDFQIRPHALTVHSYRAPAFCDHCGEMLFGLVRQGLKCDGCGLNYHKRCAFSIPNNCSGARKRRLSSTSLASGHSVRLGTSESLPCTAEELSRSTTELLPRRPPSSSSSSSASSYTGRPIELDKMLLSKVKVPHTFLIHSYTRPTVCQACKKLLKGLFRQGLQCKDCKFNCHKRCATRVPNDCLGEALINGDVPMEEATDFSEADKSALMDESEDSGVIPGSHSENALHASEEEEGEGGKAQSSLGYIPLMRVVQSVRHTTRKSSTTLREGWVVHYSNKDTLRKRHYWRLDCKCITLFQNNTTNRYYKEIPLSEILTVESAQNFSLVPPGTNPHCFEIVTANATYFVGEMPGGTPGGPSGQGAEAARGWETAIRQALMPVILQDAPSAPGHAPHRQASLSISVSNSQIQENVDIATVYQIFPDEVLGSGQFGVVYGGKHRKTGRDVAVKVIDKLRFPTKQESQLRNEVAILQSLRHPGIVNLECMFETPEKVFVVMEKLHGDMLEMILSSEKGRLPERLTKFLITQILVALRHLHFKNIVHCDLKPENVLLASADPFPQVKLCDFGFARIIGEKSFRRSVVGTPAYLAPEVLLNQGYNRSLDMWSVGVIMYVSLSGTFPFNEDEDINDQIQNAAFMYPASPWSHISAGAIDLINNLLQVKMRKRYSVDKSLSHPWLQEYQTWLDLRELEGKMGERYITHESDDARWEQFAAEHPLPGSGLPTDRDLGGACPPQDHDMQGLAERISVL
# [6] = biological target: T4, Inhibitor of nuclear factor kappa-B kinase subunit epsilon (Homo sapiens) (UniProt Q14164); assay: Inhibition of IKKepsilon (unknown origin) at 10 uM after 120 mins P33 radiolabeled kinase activity assay
# T4 sequence (whole entry): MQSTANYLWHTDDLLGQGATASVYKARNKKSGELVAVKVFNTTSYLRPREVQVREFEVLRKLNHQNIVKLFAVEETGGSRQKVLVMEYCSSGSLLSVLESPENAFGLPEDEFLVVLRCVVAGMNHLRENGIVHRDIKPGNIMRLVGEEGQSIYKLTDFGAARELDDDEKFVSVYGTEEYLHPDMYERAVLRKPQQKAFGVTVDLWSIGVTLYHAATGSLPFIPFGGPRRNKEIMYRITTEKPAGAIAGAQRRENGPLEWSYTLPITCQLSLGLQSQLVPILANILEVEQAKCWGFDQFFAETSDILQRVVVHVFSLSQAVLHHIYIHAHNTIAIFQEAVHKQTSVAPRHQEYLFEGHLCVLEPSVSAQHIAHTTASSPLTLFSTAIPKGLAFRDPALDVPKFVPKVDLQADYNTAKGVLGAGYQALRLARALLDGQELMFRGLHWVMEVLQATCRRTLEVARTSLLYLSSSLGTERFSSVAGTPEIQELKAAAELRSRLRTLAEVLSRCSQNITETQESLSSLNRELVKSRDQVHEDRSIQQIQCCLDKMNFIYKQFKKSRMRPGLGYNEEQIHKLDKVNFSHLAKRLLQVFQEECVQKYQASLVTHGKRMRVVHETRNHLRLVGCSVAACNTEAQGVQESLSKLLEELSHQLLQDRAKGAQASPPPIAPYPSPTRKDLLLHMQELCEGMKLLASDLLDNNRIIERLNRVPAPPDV
# Chain of CDK1/Cyclin A (Homo sapiens) (P06493 whole entry, looked up): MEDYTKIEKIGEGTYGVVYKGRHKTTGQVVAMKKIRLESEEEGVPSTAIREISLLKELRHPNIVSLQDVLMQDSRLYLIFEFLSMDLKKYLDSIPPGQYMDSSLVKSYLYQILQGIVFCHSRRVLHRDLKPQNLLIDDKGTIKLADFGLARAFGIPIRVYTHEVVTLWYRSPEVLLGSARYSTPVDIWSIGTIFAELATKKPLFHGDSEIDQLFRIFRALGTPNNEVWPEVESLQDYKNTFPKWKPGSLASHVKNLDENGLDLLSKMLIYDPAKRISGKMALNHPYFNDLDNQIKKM
# Chain of CDK1/Cyclin A (Homo sapiens) (P20248 whole entry, looked up): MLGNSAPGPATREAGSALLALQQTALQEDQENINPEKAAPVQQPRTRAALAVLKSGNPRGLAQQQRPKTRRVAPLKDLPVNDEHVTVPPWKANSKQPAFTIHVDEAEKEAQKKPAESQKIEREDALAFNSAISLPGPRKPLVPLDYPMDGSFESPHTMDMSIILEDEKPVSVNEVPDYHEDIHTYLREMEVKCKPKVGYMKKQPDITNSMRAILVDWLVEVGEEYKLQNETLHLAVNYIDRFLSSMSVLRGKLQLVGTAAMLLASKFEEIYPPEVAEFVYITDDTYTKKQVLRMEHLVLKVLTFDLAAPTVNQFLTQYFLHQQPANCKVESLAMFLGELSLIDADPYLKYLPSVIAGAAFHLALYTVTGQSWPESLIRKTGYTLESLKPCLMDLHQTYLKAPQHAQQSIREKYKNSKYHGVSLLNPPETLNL
# Chain of Maternal embryonic leucine zipper kinase (Homo sapiens) (Q14680 whole entry, looked up): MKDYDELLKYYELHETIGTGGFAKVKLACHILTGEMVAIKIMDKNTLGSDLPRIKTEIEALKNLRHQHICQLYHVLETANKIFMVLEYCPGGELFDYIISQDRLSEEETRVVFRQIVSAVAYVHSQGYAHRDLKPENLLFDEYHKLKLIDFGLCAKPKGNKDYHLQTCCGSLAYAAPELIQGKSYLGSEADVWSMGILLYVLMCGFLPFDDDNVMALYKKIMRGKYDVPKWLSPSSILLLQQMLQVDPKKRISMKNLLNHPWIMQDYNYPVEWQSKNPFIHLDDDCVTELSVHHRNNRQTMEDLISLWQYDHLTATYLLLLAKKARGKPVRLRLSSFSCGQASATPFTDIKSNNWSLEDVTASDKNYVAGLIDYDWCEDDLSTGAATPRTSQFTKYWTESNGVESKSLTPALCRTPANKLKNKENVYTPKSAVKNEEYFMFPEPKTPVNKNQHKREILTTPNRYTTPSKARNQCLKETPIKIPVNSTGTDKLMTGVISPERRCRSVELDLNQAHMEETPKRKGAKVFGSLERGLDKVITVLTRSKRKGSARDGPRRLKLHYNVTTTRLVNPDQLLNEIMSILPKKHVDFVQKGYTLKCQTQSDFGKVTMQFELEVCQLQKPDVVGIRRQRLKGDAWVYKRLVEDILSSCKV
inhibition [1],inhibition [2],inhibition [3],inhibition [4],inhibition [5],inhibition [6],SMILES
-6.11%,-0.74%,3.82%,8.47%,19.8%,-0.19%,COCCNC(=O)c1ccc2c(c1)nc(-c1cnc(-c3ccc(Cl)cc3)[nH]1)n2CCOC
34.2%,-2.12%,1.83%,69.3%,102%,67.7%,CS(=O)(=O)c1cccc(Nc2nccc(-c3sc(N4CCOCC4)nc3-c3cccc(NS(=O)(=O)c4c(F)cccc4F)c3)n2)c1
7.46%,-2.01%,1.87%,-0.03%,21.2%,1.8%,CC(C)(C)c1cc(NC(=O)Nc2ccc(Oc3ccncc3)cc2)no1
